{"source": "paper PMC7979765", "about": "“trans-Translation inhibitors bind to a novel site on the ribosome and clear Neisseria gonorrhoeae in vivo” (Nature Communications, 2021)", "key": {"HeLa cells [1]": {"tested_on": "HeLa cells", "experiment": "Mammalian cell cytotoxicity (CC50)", "type": "cell-based, human", "settings": "one value per replicate"}, "[2]": {"experiment": "Aqueous solubility (nephelometric)", "type": "physicochemical"}, "Neisseria gonorrhoeae": {"tested_on": "Neisseria gonorrhoeae", "experiment": "MIC, microbroth dilution, G77L medium", "type": "cell-based", "settings": "Neisseria gonorrhoeae ATCC 49226; source data, individual replicates"}, "[3]": {"experiment": "Liver microsome stability, murine", "type": "in vitro ADME, mouse", "how_it_was_run": "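Compounds incubated with liver microsomes plus NADPH over 30 min; parent remaining quantified by reverse-phase LC/MS. Half-life from linear regression over several time points.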"}, "Escherichia coli": {"tested_on": "Escherichia coli", "experiment": "microbe, parasite or virus in culture", "type": "cell-based", "settings": "E. coli KLE701 (ΔtolC::tet); source data, individual replicates"}, "HeLa cells [4]": {"tested_on": "HeLa cells", "experiment": "Mammalian cell cytotoxicity (CC50)", "type": "cell-based, human", "settings": "HeLa, replicates", "method": "The half maximal cytotoxic concentration (CC50) of each compound against HeLa cells (ATCC CCL-2) was measured as previously described. […] The mean values for each biological replicate were averaged, and the CC50 was determined using a 4-parameter nonlinear curve fitting algorithm (GraphPad Prism). The average of the CC50s from two biological replicates was calculated and reported."}}, "note": "Where “and” joins values, the source holds several entries; their conditions need not be identical. Equal values may be shown once.", "data": [{"compound": "O=C(Nc1nnc(-c2ccc(F)cc2)o1)N1CCCC1", "note": "[MBX-4346]", "values": [{"measurement": "CC50", "setting": "HeLa cells [1]", "value": "≥ 100", "unit": "µM"}, {"measurement": "Average solubility", "setting": "[2]", "value": ">200", "unit": "µM"}, {"measurement": "Solubility", "setting": "[2]; single replicates", "value": ">200", "unit": "µM"}, {"measurement": "MIC", "setting": "Neisseria gonorrhoeae", "value": 3.453, "unit": "µg/mL"}, {"measurement": "liver microsome stability (in words)", "setting": "[3]", "value": "limited"}, {"measurement": "Average MLMS t½", "setting": "[3]; murine liver microsomes, average of replicates", "value": 25, "unit": "min"}, {"measurement": "MLMS t½", "setting": "[3]; murine liver microsomes, individual replicates", "value": "30.1 min and 20.5 min"}, {"measurement": "MIC", "setting": "Escherichia coli", "value": 27.6271, "unit": "µg/mL"}, {"measurement": "NORMALIZED DATA (Fraction DMSO Control)", "setting": "HeLa cells [4]; [CMPD] 0.78125 µM", "value": "1.217 Fraction DMSO Control and 0.9631 Fraction DMSO Control and 1.029 Fraction DMSO Control"}, {"measurement": "NORMALIZED DATA (Fraction DMSO Control)", "setting": "HeLa cells [4]; [CMPD] 1.5625 µM", "value": "1.148 Fraction DMSO Control and 0.9904 Fraction DMSO Control and 1.014 Fraction DMSO Control"}, {"measurement": "NORMALIZED DATA (Fraction DMSO Control)", "setting": "HeLa cells [4]; [CMPD] 3.125 µM", "value": "1.14 Fraction DMSO Control and 1.021 Fraction DMSO Control and 1.0883 Fraction DMSO Control"}, {"measurement": "NORMALIZED DATA (Fraction DMSO Control)", "setting": "HeLa cells [4]; [CMPD] 6.25 µM", "value": "1.122 Fraction DMSO Control and 0.9837 Fraction DMSO Control and 1.041 Fraction DMSO Control"}, {"measurement": "NORMALIZED DATA (Fraction DMSO Control)", "setting": "HeLa cells [4]; [CMPD] 12.5 µM", "value": "1.103 Fraction DMSO Control and 1.043 Fraction DMSO Control and 1.0247 Fraction DMSO Control"}, {"measurement": "NORMALIZED DATA (Fraction DMSO Control)", "setting": "HeLa cells [4]; [CMPD] 25 µM", "value": "1.033 Fraction DMSO Control and 0.9838 Fraction DMSO Control and 0.9917 Fraction DMSO Control"}, {"measurement": "NORMALIZED DATA (Fraction DMSO Control)", "setting": "HeLa cells [4]; [CMPD] 50 µM", "value": "0.972 Fraction DMSO Control and 0.8011 Fraction DMSO Control and 0.809 Fraction DMSO Control"}, {"measurement": "NORMALIZED DATA (Fraction DMSO Control)", "setting": "HeLa cells [4]; [CMPD] 100 µM", "value": "0.8767 Fraction DMSO Control and 0.7312 Fraction DMSO Control and 0.7411 Fraction DMSO Control"}]}]}
